This passage reports Activity and EC50 results from ChEMBL document CHEMBL5107991, “Conversion of oxadiazolo[3,4-b]pyrazines to imidazo[4,5-b]pyrazines via a tandem reduction-cyclization sequence generates new mitochondrial uncouplers” (Bioorg Med Chem Lett, 2022).

The source made the active and inactive calls. The rule behind the calls is not given here. Where only a bound is given, the exact number is not on record here.

System in the first experiment: not listed separately
The experiment in a line: Induction of mitochondrial uncoupled respiration in rat L6 myoblasts assessed as increase in oxygen consumption rate at 10 uM measured by Agilent Seahorse XF analyzer. The experiment is classed as functional.
`Fc1ccccc1Nc1nc2nc(C(F)(F)F)[nH]c2nc1Nc1ccccc1F`: the Activity is 50%.

Take `FC(F)(F)c1nc2nc(Nc3ccccc3C(F)(F)F)c(Nc3ccccc3C(F)(F)F)nc2[nH]1`: the Activity was more than 150%.

In the case of `Fc1cccc(Nc2nc3[nH]c(C(F)(F)F)nc3nc2Nc2ccccc2F)c1`, the Activity was determined as 100%.

With `Fc1ccc(C(F)(F)F)cc1Nc1nc2nc(C(F)(F)F)[nH]c2nc1Nc1cc(C(F)(F)F)ccc1F`, the Activity is listed as 100%.

Regarding `Fc1c(Nc2nc3nc(C(F)(F)F)[nH]c3nc2Nc2cccc(C(F)(F)F)c2F)cccc1C(F)(F)F`, the Activity is listed as more than 150%.

In the case of `Cn1c(C(F)(F)F)nc2nc(Nc3cc(C(F)(F)F)cc(C(F)(F)F)c3)c(Nc3cc(C(F)(F)F)cc(C(F)(F)F)c3)nc21`, the Activity was 100%.

For the compound `Fc1cccc(Nc2nc3nc(C(F)(F)F)[nH]c3nc2Nc2cccc(F)c2F)c1F`, the Activity is recorded as more than 150%.

System in another experiment: not listed separately
The experiment in a line: Induction of mitochondrial uncoupled respiration in rat L6 myoblasts assessed as increase in oxygen consumption rate measured by Agilent Seahorse XF analyzer. It counts as functional, cell-based.
In general, EC50 refers to the concentration that produces a half-maximal response. Regarding `Oc1nc2nonc2nc1Nc1ccc(OC(F)(F)F)cc1`, the EC50 was 4.3 µM.

For the next experiment, the system named is L6. The experiment in a line: (§1) Induction of mitochondrial uncoupled respiration in rat L6 myoblasts assessed as increase in oxygen consumption rate at 50 uM measured by Agilent Seahorse XF analyzer. The experiment is classed as functional.
On to `Cc1ccc(Nc2nc3nc(C(F)(F)F)[nH]c3nc2Nc2ccc(C)cc2)cc1`, for which the result was Active.

In the case of `FC(F)(F)c1nc2nc(Nc3ccccc3)c(Nc3ccccc3)nc2[nH]1`, the result was Active.

System in a further experiment: not listed separately
Described as §1. It counts as functional.
For the compound `Fc1ccccc1Nc1nc2nc(C(F)(F)F)[nH]c2nc1Nc1ccccc1F`, the Activity was determined as 150%.

Regarding `Fc1cccc(Nc2nc3[nH]c(C(F)(F)F)nc3nc2Nc2ccccc2F)c1`, the Activity amounted to 150%.

Take `FC(F)(F)c1cc(Nc2nc3nc(C(F)(F)F)[nH]c3nc2Nc2cc(C(F)(F)F)cc(C(F)(F)F)c2)cc(C(F)(F)F)c1`: the Activity is 100%.

Regarding `Fc1ccccc1Nc1nc2nc(C(F)(F)F)[nH]c2nc1NC1CCCCC1`, the Activity is 125%.

Consider `Cn1c(C(F)(F)F)nc2nc(Nc3cc(C(F)(F)F)cc(C(F)(F)F)c3)c(Nc3cc(C(F)(F)F)cc(C(F)(F)F)c3)nc21`, for which the Activity is on record as more than 300%.

Turning to `Fc1ccccc1Nc1nc2nc(C(F)(F)F)[nH]c2nc1Nc1ccccc1`, the Activity came out at 50%.

Consider `Cc1ccc(Nc2nc3[nH]c(C(F)(F)F)nc3nc2Nc2ccccc2F)cc1`, for which the Activity was 50%.

Take `Cn1c(C(F)(F)F)nc2nc(Nc3cc(C(F)(F)F)ccc3F)c(Nc3cc(C(F)(F)F)ccc3F)nc21`: the Activity is listed as more than 200%.
